For the test, the system named is MV-4-11 cells. The experiment in a line: Gene expression microarray analysis (Affymetrix PrimeView) and GSEA. Format: cell-based, human. Further details: RFU PODN (11730768_x_at) / Fold change /veh PODN (11730768_x_at) / RFU LINC00158 (11744669_a_at) / Fold change /veh LINC00158 (11744669_a_at) / RFU DUSP10 (11751237_a_at) / Fold change /veh DUSP10 (11751237_a_at) / RFU ID3 (11757404_x_at) / Fold change /veh ID3 (11757404_x_at) / RFU PLEKHG5 (11737974_s_at) / Fold change /veh PLEKHG5 (11737974_s_at) / RFU LRRC4B (11730491_at) / Fold change /veh LRRC4B (11730491_at) / RFU GIMAP4 (11747438_a_at) / Fold change /veh GIMAP4 (11747438_a_at) / RFU KRT8 (11758183_x_at) / Fold change /veh KRT8 (11758183_x_at) / RFU CNN1 (11734310_a_at) / Fold change /veh CNN1 (11734310_a_at) / RFU VPS37D (11726825_at) / Fold change /veh VPS37D (11726825_at) / RFU C10orf10 (11716522_x_at) / Fold change /veh C10orf10 (11716522_x_at) / RFU KIR2DL2 /// KIR2DL4 /// KIR2DL5A /// KIR2DL5B /// KIR2DS1 /// KIR2DS2 /// KIR2DS3 /// KIR2DS4 /// KIR3DL3 /// KIR3DL3 /// KIR3DS1 (11738374_at) / Fold change /veh KIR2DL2 /// KIR2DL4 /// KIR2DL5A /// KIR2DL5B /// KIR2DS1 /// KIR2DS2 /// KIR2DS3 /// KIR2DS4 /// KIR3DL3 /// KIR3DL3 /// KIR3DS1 (11738374_at) / RFU C1QL1 (11718748_at) / Fold change /veh C1QL1 (11718748_at) / RFU TMPRSS4 (11747572_a_at) / Fold change /veh TMPRSS4 (11747572_a_at) / RFU HAMP (11756126_x_at) / Fold change /veh HAMP (11756126_x_at) / RFU RNFT2 (11725882_a_at) / Fold change /veh RNFT2 (11725882_a_at) / RFU NR4A2 (11747474_a_at) / Fold change /veh NR4A2 (11747474_a_at) / RFU ABCC12 (11746883_a_at) / Fold change /veh ABCC12 (11746883_a_at) / RFU TMEM136 (11760407_x_at) / Fold change /veh TMEM136 (11760407_x_at) / RFU CLDN22 /// WWC2 (11732394_at) / Fold change /veh CLDN22 /// WWC2 (11732394_at) / RFU HLA-DPB1 (11760878_x_at) / Fold change /veh HLA-DPB1 (11760878_x_at) / RFU SPINT1 (11716480_a_at) / Fold change /veh SPINT1 (11716480_a_at) / RFU GAP43 (11754022_s_at) / Fold change /veh GAP43 (11754022_s_at) / RFU A4GNT (11735810_at) / Fold change /veh A4GNT (11735810_at) / RFU PRB3 (11715151_x_at) / Fold change /veh PRB3 (11715151_x_at) / RFU TUBB4B (11761932_at) / Fold change /veh TUBB4B (11761932_at) / RFU CAPN14 (11732068_a_at) / Fold change /veh CAPN14 (11732068_a_at) / RFU TMCC2 (11721928_a_at) / Fold change /veh TMCC2 (11721928_a_at) / RFU IRGQ (11745062_a_at) / Fold change /veh IRGQ (11745062_a_at) / RFU FAM174B (11720279_a_at) / Fold change /veh FAM174B (11720279_a_at) / RFU TMPRSS4 (11748680_a_at) / Fold change /veh TMPRSS4 (11748680_a_at) / RFU FAM212B (11763350_a_at) / Fold change /veh FAM212B (11763350_a_at) / RFU PLEKHG5 (11743358_a_at) / Fold change /veh PLEKHG5 (11743358_a_at) / RFU ZSCAN30 (11745921_a_at) / Fold change /veh ZSCAN30 (11745921_a_at) / RFU CMKLR1 (11741424_a_at) / Fold change /veh CMKLR1 (11741424_a_at) / RFU LOC101060620 /// MAPK8IP1 (11723275_at) / Fold change /veh LOC101060620 /// MAPK8IP1 (11723275_at) / RFU SPTSSB (11747773_x_at) / Fold change /veh SPTSSB (11747773_x_at) / RFU PRSS12 (11739890_at) / Fold change /veh PRSS12 (11739890_at) / RFU BIN1 (11741810_x_at) / Fold change /veh BIN1 (11741810_x_at) / RFU WNT11 (11732464_a_at) / Fold change /veh WNT11 (11732464_a_at) / RFU C10orf10 (11716521_a_at) / Fold change /veh C10orf10 (11716521_a_at) / RFU C5orf56 (11738089_at) / Fold change /veh C5orf56 (11738089_at) / RFU CYB561 (11721691_x_at) / Fold change /veh CYB561 (11721691_x_at) / RFU ANKRD19P (11752326_a_at) / Fold change /veh ANKRD19P (11752326_a_at) / RFU OR2T12 /// OR2T33 /// OR2T8 (11738714_s_at) / Fold change /veh OR2T12 /// OR2T33 /// OR2T8 (11738714_s_at) / RFU VCAN (11748164_a_at) / Fold change /veh VCAN (11748164_a_at) / RFU JSRP1 (11732532_at) / Fold change /veh JSRP1 (11732532_at) / RFU KRTAP10-11 (11738290_x_at) / Fold change /veh KRTAP10-11 (11738290_x_at) / RFU MYO3A (11730013_a_at) / Fold change /veh MYO3A (11730013_a_at) / RFU EBF3 (11725865_a_at) / Fold change /veh EBF3 (11725865_a_at) / RFU CAMK2N1 (11719241_x_at) / Fold change /veh CAMK2N1 (11719241_x_at) / RFU C5orf56 (11738088_a_at) / Fold change /veh C5orf56 (11738088_a_at) / RFU OLFML3 (11715873_a_at) / Fold change /veh OLFML3 (11715873_a_at) / RFU LOC100653217 /// NTM (11731650_a_at) / Fold change /veh LOC100653217 /// NTM (11731650_a_at) / RFU MAPK11 (11762145_a_at) / Fold change /veh MAPK11 (11762145_a_at) / RFU FIZ1 (11724087_x_at) / Fold change /veh FIZ1 (11724087_x_at) / RFU OASL (11726364_x_at) / Fold change /veh OASL (11726364_x_at) / RFU SOX15 (11748057_x_at) / Fold change /veh SOX15 (11748057_x_at) / RFU CD79A (11719716_a_at) / Fold change /veh CD79A (11719716_a_at) / RFU HIST1H1D (11736915_at) / Fold change /veh HIST1H1D (11736915_at) / RFU CASKIN2 (11723855_a_at) / Fold change /veh CASKIN2 (11723855_a_at) / RFU LOC730098 (11760151_x_at) / Fold change /veh LOC730098 (11760151_x_at) / RFU OR4N2 (11742367_at) / Fold change /veh OR4N2 (11742367_at) / RFU PRRT2 (11749266_a_at) / Fold change /veh PRRT2 (11749266_a_at) / RFU SNX32 (11753110_a_at) / Fold change /veh SNX32 (11753110_a_at) / RFU CDHR5 (11726645_a_at) / Fold change /veh CDHR5 (11726645_a_at) / RFU RCAN1 (11760418_a_at) / Fold change /veh RCAN1 (11760418_a_at) / RFU FAM167A (11723789_a_at) / Fold change /veh FAM167A (11723789_a_at) / RFU FAM26E (11764081_at) / Fold change /veh FAM26E (11764081_at) / RFU ISYNA1 (11749810_s_at) / Fold change /veh ISYNA1 (11749810_s_at) / RFU ACY1 (11761880_at) / Fold change /veh ACY1 (11761880_at) / RFU 11764098_at / Fold change /veh 11764098_at / RFU SAMD14 (11745864_x_at) / Fold change /veh SAMD14 (11745864_x_at) / RFU NPB (11741838_a_at) / Fold change /veh NPB (11741838_a_at) / RFU TMPRSS6 (11731388_a_at) / Fold change /veh TMPRSS6 (11731388_a_at) / RFU KRTAP10-2 (11738614_at) / Fold change /veh KRTAP10-2 (11738614_at) / RFU ARHGAP8 /// PRR5-ARHGAP8 (11727945_x_at) / Fold change /veh ARHGAP8 /// PRR5-ARHGAP8 (11727945_x_at) / RFU KRTAP5-7 /// NADSYN1 (11734609_at) / Fold change /veh KRTAP5-7 /// NADSYN1 (11734609_at) / RFU RASL12 (11751679_a_at) / Fold change /veh RASL12 (11751679_a_at) / RFU CDKN2B (11736163_a_at) / Fold change /veh CDKN2B (11736163_a_at) / RFU PRF1 (11729649_at) / Fold change /veh PRF1 (11729649_at) / RFU, ZNF638 /// ZNF638-IT1 / Fold change vs veh, ZNF638 /// ZNF638-IT1 / RFU, PANK3 / Fold change vs veh, PANK3 / RFU, SH3YL1 / Fold change vs veh, SH3YL1 / RFU, ZEB2 / Fold change vs veh, ZEB2 / RFU, NRIP1 / Fold change vs veh, NRIP1 / RFU, PTTG1IP / Fold change vs veh, PTTG1IP / RFU, CAPN2 / Fold change vs veh, CAPN2 / RFU, MED14 / Fold change vs veh, MED14 / RFU, SNORA58 / Fold change vs veh, SNORA58 / RFU, C1orf63 / Fold change vs veh, C1orf63 / RFU, LRRFIP1 / Fold change vs veh, LRRFIP1 / RFU, NDUFAF7 / Fold change vs veh, NDUFAF7 / RFU, SLC12A2 / Fold change vs veh, SLC12A2 / RFU, IBTK / Fold change vs veh, IBTK / RFU, ESF1 / Fold change vs veh, ESF1 / Fold change vs veh, TMEM50B / RFU, TAOK1 / Fold change vs veh, TAOK1 / RFU, ACBD3 / Fold change vs veh, ACBD3 / RFU, TMA16 / Fold change vs veh, TMA16 / RFU, RWDD3 / Fold change vs veh, RWDD3 / RFU, BCAT1 / Fold change vs veh, BCAT1 / RFU, EDEM3 / Fold change vs veh, EDEM3 / RFU, TMEM33 / Fold change vs veh, TMEM33 / RFU, WDR75 / Fold change vs veh, WDR75 / RFU, AHCTF1 / Fold change vs veh, AHCTF1 / RFU, TFRC / Fold change vs veh, TFRC / RFU, ZDHHC17 / Fold change vs veh, ZDHHC17 / RFU, NOM1 / Fold change vs veh, NOM1 / RFU, ARL8B / Fold change vs veh, ARL8B / RFU, ZBTB11 / Fold change vs veh, ZBTB11 / RFU, TAMM41 / Fold change vs veh, TAMM41 / RFU, KIAA1704 /// LOC100996395 / Fold change vs veh, KIAA1704 /// LOC100996395 / RFU, ING1 / Fold change vs veh, ING1 / RFU, TRMT61B / Fold change vs veh, TRMT61B / RFU, FUBP3 / Fold change vs veh, FUBP3 / RFU, TP53 / Fold change vs veh, TP53 / RFU, TNKS2 / Fold change vs veh, TNKS2 / RFU, ZFP14 / Fold change vs veh, ZFP14 / RFU, ACTR2 / Fold change vs veh, ACTR2 / RFU, PPP3R1 / Fold change vs veh, PPP3R1 / RFU, PIK3R1 / Fold change vs veh, PIK3R1 / RFU, HNRNPA1 / Fold change vs veh, HNRNPA1 / RFU, RNF170 / Fold change vs veh, RNF170 / RFU, ZNF28 / Fold change vs veh, ZNF28 / RFU, RNGTT / Fold change vs veh, RNGTT / RFU, OGT / Fold change vs veh, OGT / RFU, BRD1 / Fold change vs veh, BRD1 / RFU, MARS / Fold change vs veh, MARS / RFU, ZNF655 / Fold change vs veh, ZNF655 / RFU, FAHD1 / Fold change vs veh, FAHD1 / RFU, BDP1 / Fold change vs veh, BDP1 / RFU, LRRCC1 / Fold change vs veh, LRRCC1 / RFU, ARID1A / Fold change vs veh, ARID1A / RFU, ZNF146 / Fold change vs veh, ZNF146 / RFU, ZNF330 / Fold change vs veh, ZNF330 / RFU, GPN3 / Fold change vs veh, GPN3 / RFU, C9orf123 / Fold change vs veh, C9orf123 / RFU, N4BP2L2 / Fold change vs veh, N4BP2L2 / RFU, ARFIP1 / Fold change vs veh, ARFIP1 / RFU, FAM179B / Fold change vs veh, FAM179B / RFU, BCL10 / Fold change vs veh, BCL10 / RFU, UHRF1BP1L / Fold change vs veh, UHRF1BP1L / RFU, BET1 / Fold change vs veh, BET1 / RFU, CNOT2 / Fold change vs veh, CNOT2 / RFU, ZNF268 / Fold change vs veh, ZNF268 / Fold change vs veh, ZNF507 / RFU, DGCR2 / Fold change vs veh, DGCR2 / RFU, WDSUB1 / Fold change vs veh, WDSUB1 / Fold change vs veh, HSP90B1 /// MIR3652 / RFU, ADSS / Fold change vs veh, ADSS / RFU, GK / Fold change vs veh, GK / RFU, ZNF148 / Fold change vs veh, ZNF148 / RFU, TAF9 / Fold change vs veh, TAF9 / RFU, SLC1A5 / Fold change vs veh, SLC1A5 / RFU, SLMO2 / Fold change vs veh, SLMO2 / RFU, ABCC4 / Fold change vs veh, ABCC4 / RFU, LOC101060439 /// RAP1B / Fold change vs veh, LOC101060439 /// RAP1B / RFU, RFX7 / Fold change vs veh, RFX7 / RFU, GTPBP10 / Fold change vs veh, GTPBP10 / RFU, CNEP1R1 / Fold change vs veh, CNEP1R1 / RFU, BIVM-ERCC5 /// ERCC5 / Fold change vs veh, BIVM-ERCC5 /// ERCC5 / RFU, ILF3 / Fold change vs veh, ILF3 / RFU 11762660_at / Fold change /veh 11762660_at / RFU VCAN (11757783_s_at) / Fold change /veh VCAN (11757783_s_at) / RFU DDX43 (11728927_at) / Fold change /veh DDX43 (11728927_at) / RFU KRT8 (11758188_x_at) / Fold change /veh KRT8 (11758188_x_at) / RFU NKD1 (11759106_at) / Fold change /veh NKD1 (11759106_at) / RFU SRD5A1 (11742802_a_at) / Fold change /veh SRD5A1 (11742802_a_at) / RFU TPSAB1 /// TPSB2 (11721975_s_at) / Fold change /veh TPSAB1 /// TPSB2 (11721975_s_at) / RFU GSTM3 (11746129_a_at) / Fold change /veh GSTM3 (11746129_a_at) / RFU IL23R (11737362_x_at) / Fold change /veh IL23R (11737362_x_at) / RFU TMEM51 (11727254_a_at) / Fold change /veh TMEM51 (11727254_a_at) / RFU PIWIL2 (11732686_x_at) / Fold change /veh PIWIL2 (11732686_x_at) / RFU ORM1 (11744905_x_at) / Fold change /veh ORM1 (11744905_x_at) / RFU CCDC152 (11743942_at) / Fold change /veh CCDC152 (11743942_at) / RFU ECM1 (11717891_a_at) / Fold change /veh ECM1 (11717891_a_at) / RFU IL23R (11748794_a_at) / Fold change /veh IL23R (11748794_a_at) / RFU TNFAIP8L3 (11732012_x_at) / Fold change /veh TNFAIP8L3 (11732012_x_at) / RFU MBOAT4 (11741988_at) / Fold change /veh MBOAT4 (11741988_at) / RFU 11764193_at / Fold change /veh 11764193_at / RFU TMEM53 (11763286_at) / Fold change /veh TMEM53 (11763286_at) / RFU MAGEB2 (11727129_at) / Fold change /veh MAGEB2 (11727129_at) / RFU TMEM200A (11744735_a_at) / Fold change /veh TMEM200A (11744735_a_at) / RFU CCDC152 (11751479_a_at) / Fold change /veh CCDC152 (11751479_a_at) / RFU FAM211A (11726209_a_at) / Fold change /veh FAM211A (11726209_a_at) / RFU RGS16 (11746705_a_at) / Fold change /veh RGS16 (11746705_a_at) / RFU VCAN (11755009_s_at) / Fold change /veh VCAN (11755009_s_at) / RFU RHOB (11743442_s_at) / Fold change /veh RHOB (11743442_s_at) / RFU RGS16 (11720943_a_at) / Fold change /veh RGS16 (11720943_a_at) / RFU RGS16 (11720944_at) / Fold change /veh RGS16 (11720944_at) / RFU, VPS4B / Fold change vs veh, VPS4B / RFU, CREB1 / Fold change vs veh, CREB1 / RFU, DNAJC13 / Fold change vs veh, DNAJC13 / RFU, GNAQ / Fold change vs veh, GNAQ / RFU, CDK5R1 / Fold change vs veh, CDK5R1 / RFU, ZRANB3 / Fold change vs veh, ZRANB3 / RFU, CUL4A / Fold change vs veh, CUL4A / RFU, CCNY / Fold change vs veh, CCNY / RFU, UFL1 / Fold change vs veh, UFL1 / RFU, COG3 / Fold change vs veh, COG3 / RFU, DIAPH2 / Fold change vs veh, DIAPH2 / RFU, SKA2 / Fold change vs veh, SKA2 / RFU, AFF3 / Fold change vs veh, AFF3 / RFU, LMF1 / Fold change vs veh, LMF1 / RFU, IPO11 / Fold change vs veh, IPO11 / RFU, DFFB / Fold change vs veh, DFFB / RFU, FOXP1 / Fold change vs veh, FOXP1 / RFU, CARD8 / Fold change vs veh, CARD8 / RFU, STRN3 / Fold change vs veh, STRN3 / RFU, ADK / Fold change vs veh, ADK / RFU, RASSF2 / Fold change vs veh, RASSF2 / RFU, WIPF1 / Fold change vs veh, WIPF1 / RFU, LARP1B / Fold change vs veh, LARP1B / RFU, RASA1 / Fold change vs veh, RASA1 / RFU, RB1 / Fold change vs veh, RB1 / RFU, PPFIA1 / Fold change vs veh, PPFIA1 / RFU, MAT2A / Fold change vs veh, MAT2A / RFU, CCT5 / Fold change vs veh, CCT5 / RFU, WDR92 / Fold change vs veh, WDR92 / RFU, CUX1 / Fold change vs veh, CUX1 / RFU, TTC7A / Fold change vs veh, TTC7A / RFU, TMEM135 / Fold change vs veh, TMEM135 / RFU, DEPTOR / Fold change vs veh, DEPTOR / RFU, CPM / Fold change vs veh, CPM / RFU, DNAJB6 / Fold change vs veh, DNAJB6 / RFU, CACNA2D3 / Fold change vs veh, CACNA2D3 / RFU, DTX4 / Fold change vs veh, DTX4 / RFU, TFCP2 / Fold change vs veh, TFCP2 / RFU, GMCL1 /// GMCL1P1 / Fold change vs veh, GMCL1 /// GMCL1P1 / RFU, AEBP2 / Fold change vs veh, AEBP2 / RFU, SNHG1 /// SNORD22 /// SNORD25 /// SNORD26 /// SNORD27 /// SNORD28 /// SNORD29 /// SNORD31 / Fold change vs veh, SNHG1 /// SNORD22 /// SNORD25 /// SNORD26 /// SNORD27 /// SNORD28 /// SNORD29 /// SNORD31 / Fold change (Aza/veh), C12orf56 (ProbeSet 11735607_a_at) / Fold change (ACY-1035/veh), C12orf56 (ProbeSet 11735607_a_at) / Fold change (Aza/veh), FGFR1OP (ProbeSet 11751329_s_at) / Fold change (ACY-1035/veh), FGFR1OP (ProbeSet 11751329_s_at) / Fold change (Aza/veh), VPS36 (ProbeSet 11739960_a_at) / Fold change (ACY-1035/veh), VPS36 (ProbeSet 11739960_a_at) / RFU SYPL1 (11715823_x_at) / Fold change /veh SYPL1 (11715823_x_at) / RFU IGFBP7 (11715501_s_at) / Fold change /veh IGFBP7 (11715501_s_at) / RFU REEP3 (11722064_at) / Fold change /veh REEP3 (11722064_at) / RFU IGLL1 (11728026_x_at) / Fold change /veh IGLL1 (11728026_x_at): dose or concentration left out as unconfirmed. The settings on record: MV-4-11 cells, 48 hours.

For the compound `Nc1ncn([C@@H]2O[C@H](CO)[C@@H](O)[C@H]2O)c(=O)n1` [azacitidine], the “RFU JSRP1 (11732532_at)” value is recorded as 47.93 RFU.

Values taken from publication PMC5218480 (PLoS ONE, 2017).
